Assay results: EP0050253A1, “Antibiotic pharmaceutical composition” (priority 1980, dated 1982)

Experiments:
[1] = system: Kl. pneumoniae 1082 E; assay: Agar dilution checkerboard growth test (Caseinpepton-Fleischextrakt-Bouillon-Agar, ~3x10^4 CFU/ml, 18 h, 37 °C); type: cell-based
Protocol: (§1) Ein Caseinpepton-Fleischextrakt-Bouillon-Agar mit einem Gehalt der angegebenen Menge der nachstehend angegebenen Substanzen A und B wird mit dem Testbakterium geimpft (~3x10^4CFU/ml). Nach der Inkubation während 18 Stunden bei 37 °C wird der Wuchszustand der Testbakterien untersucht. Die Ergebnisse sind in den Tabellen zusammengestellt. In jeder Tabelle bedeutet (+), daß das Testbakterium wächst, und (-) bedeutet, daß das Testbakterium nicht wächst. Man erkennt aus diesen Tabellen, daß die Kombination von D-α-[3-(2-p-Aminosulfonylanilino-4-hydroxy-5-pyrimidinyl)-ureido]-p-hydroxy-benzylpenicillin-Natrium = A bzw.

[2] = system: Escherichia coli R^+TEM; assay: as above; type: cell-based
Protocol: as §1

For `Cn1nnnc1SCC1=C(C(=O)O)N2C(=O)[C@@H](NC(=O)[C@H](NC(=O)Nc3cnc(Nc4ccc(S(N)(=O)=O)cc4)nc3O)c3ccc(O)cc3)[C@H]2SC1` [Substanz B], the “Wuchszustand der Testbakterien” value ([1]; C 0 µg/ml, B 0,5 µg/ml) was “+”, the “Wuchszustand der Testbakterien” value ([1]; C 0 µg/ml, B 0,25 µg/ml) was “+” and the “Wuchszustand der Testbakterien” value ([1]; C 0 µg/ml, B 1 µg/ml) was “+”. For the same molecule, the “Wuchszustand der Testbakterien” value ([1]; C 0 µg/ml, B 2 µg/ml) was “+”, the “Wuchszustand der Testbakterien” value ([1]; C 0 µg/ml, B 4 µg/ml) was “+” and the “Wuchszustand der Testbakterien” value ([1]; C 0 µg/ml, B 8 µg/ml) was “+”. The “Wuchszustand der Testbakterien” value ([1]; C 0 µg/ml, B 16 µg/ml) was “+”, the “Wuchszustand der Testbakterien” value ([1]; C 0 µg/ml, B 32 µg/ml) was “+” and the “Wuchszustand der Testbakterien” value ([1]; C 0 µg/ml, B 64 µg/ml) was “+”. For the same molecule, the “Wuchszustand der Testbakterien” value ([2]; C 0 µg/ml, B 0,5 µg/ml) was “+”, the “Wuchszustand der Testbakterien” value ([2]; C 0 µg/ml, B 0,06 µg/ml) was “+” and the “Wuchszustand der Testbakterien” value ([2]; C 0 µg/ml, B 0,25 µg/ml) was “+”. For the same molecule, the “Wuchszustand der Testbakterien” value ([2]; C 0 µg/ml, B 1 µg/ml) was “+”, the “Wuchszustand der Testbakterien” value ([2]; C 0 µg/ml, B 2 µg/ml) was “+” and the “Wuchszustand der Testbakterien” value ([2]; C 0 µg/ml, B 4 µg/ml) was “+”. For the same molecule, the “Wuchszustand der Testbakterien” value ([2]; C 0 µg/ml, B 8 µg/ml) was “-” and the “Wuchszustand der Testbakterien” value ([2]; C 0 µg/ml, B 0,125 µg/ml) was “+”.

In the case of `CC1(C)S[C@@H]2[C@H](NC(=O)[C@H](NC(=O)Nc3cnc(Nc4ccc(S(N)(=O)=O)cc4)nc3O)c3ccc(O)cc3)C(=O)N2[C@H]1C(=O)O` [Substanz A, D-α-[3-(2-p-Aminosulfonylanilino-4-hydroxy-5-pyrimidinyl)-ureido]-p-hydroxy-benzylpenicillin-Natrium], the “Wuchszustand der Testbakterien” value ([1]; C 0 µg/ml, A 0,5 µg/ml) is reported as “+”, the “Wuchszustand der Testbakterien” value ([1]; C 0 µg/ml, A 0,25 µg/ml) is reported as “+” and the “Wuchszustand der Testbakterien” value ([1]; C 0 µg/ml, A 1 µg/ml) is reported as “+”. The “Wuchszustand der Testbakterien” value ([1]; C 0 µg/ml, A 2 µg/ml) was “+”, the “Wuchszustand der Testbakterien” value ([1]; C 0 µg/ml, A 4 µg/ml) was “+” and the “Wuchszustand der Testbakterien” value ([1]; C 0 µg/ml, A 8 µg/ml) was “+”. For the same molecule, the “Wuchszustand der Testbakterien” value ([1]; C 0 µg/ml, A 16 µg/ml) was “+”, the “Wuchszustand der Testbakterien” value ([1]; C 0 µg/ml, A 32 µg/ml) was “+” and the “Wuchszustand der Testbakterien” value ([1]; C 0 µg/ml, A 64 µg/ml) was “+”. The “Wuchszustand der Testbakterien” value ([2]; C 0 µg/ml, A 0,5 µg/ml) was “+”, the “Wuchszustand der Testbakterien” value ([2]; C 0 µg/ml, A 1 µg/ml) was “+” and the “Wuchszustand der Testbakterien” value ([2]; C 0 µg/ml, A 2 µg/ml) was “+”. For the same molecule, the “Wuchszustand der Testbakterien” value ([2]; C 0 µg/ml, A 4 µg/ml) was “+”, the “Wuchszustand der Testbakterien” value ([2]; C 0 µg/ml, A 8 µg/ml) was “+” and the “Wuchszustand der Testbakterien” value ([2]; C 0 µg/ml, A 16 µg/ml) was “+”. The “Wuchszustand der Testbakterien” value ([2]; C 0 µg/ml, A 32 µg/ml) was “+”, the “Wuchszustand der Testbakterien” value ([2]; C 0 µg/ml, A 64 µg/ml) was “+” and the “Wuchszustand der Testbakterien” value ([2]; C 0 µg/ml, A 128 µg/ml) was “+”.

In the case of `O=C(O)[C@H]1/C(=C/CO)O[C@@H]2CC(=O)N21` [Substanz C, Lithium-Z-(2R,5R)-3-(ß-hydroxyäthyliden)-7-oxo-4-oxa-1-aza-bicyclo[3,2,0]-heptan-2-carboxylat, reference compound], the “Wuchszustand der Testbakterien” value ([1]; C 1 µg/ml, A 0 µg/ml) is reported as “+”, the “Wuchszustand der Testbakterien” value ([1]; C 1 µg/ml, B 0 µg/ml) is reported as “+” and the “Wuchszustand der Testbakterien” value ([1]; C 2 µg/ml, A 0 µg/ml) is reported as “+”. For the same molecule, the “Wuchszustand der Testbakterien” value ([1]; C 2 µg/ml, B 0 µg/ml) was “+”, the “Wuchszustand der Testbakterien” value ([1]; C 4 µg/ml, A 0 µg/ml) was “+” and the “Wuchszustand der Testbakterien” value ([1]; C 4 µg/ml, B 0 µg/ml) was “+”. For the same molecule, the “Wuchszustand der Testbakterien” value ([1]; C 8 µg/ml, A 0 µg/ml) was “+”, the “Wuchszustand der Testbakterien” value ([1]; C 8 µg/ml, B 0 µg/ml) was “+” and the “Wuchszustand der Testbakterien” value ([1]; C 16 µg/ml, A 0 µg/ml) was “+”. For the same molecule, the “Wuchszustand der Testbakterien” value ([1]; C 16 µg/ml, B 0 µg/ml) was “+”, the “Wuchszustand der Testbakterien” value ([1]; C 32 µg/ml, A 0 µg/ml) was “+” and the “Wuchszustand der Testbakterien” value ([1]; C 32 µg/ml, B 0 µg/ml) was “+”. For the same molecule, the “Wuchszustand der Testbakterien” value ([1]; C 64 µg/ml, A 0 µg/ml) was “-”, the “Wuchszustand der Testbakterien” value ([1]; C 64 µg/ml, B 0 µg/ml) was “-” and the “Wuchszustand der Testbakterien” value ([2]; C 0,5 µg/ml, B 0 µg/ml) was “+”. For the same molecule, the “Wuchszustand der Testbakterien” value ([2]; C 0,25 µg/ml, B 0 µg/ml) was “+”, the “Wuchszustand der Testbakterien” value ([2]; C 1 µg/ml, A 0 µg/ml) was “+” and the “Wuchszustand der Testbakterien” value ([2]; C 1 µg/ml, B 0 µg/ml) was “+”. For the same molecule, the “Wuchszustand der Testbakterien” value ([2]; C 2 µg/ml, A 0 µg/ml) was “+”, the “Wuchszustand der Testbakterien” value ([2]; C 2 µg/ml, B 0 µg/ml) was “+” and the “Wuchszustand der Testbakterien” value ([2]; C 4 µg/ml, A 0 µg/ml) was “+”. For the same molecule, the “Wuchszustand der Testbakterien” value ([2]; C 4 µg/ml, B 0 µg/ml) was “+”, the “Wuchszustand der Testbakterien” value ([2]; C 8 µg/ml, A 0 µg/ml) was “+” and the “Wuchszustand der Testbakterien” value ([2]; C 8 µg/ml, B 0 µg/ml) was “+”. For the same molecule, the “Wuchszustand der Testbakterien” value ([2]; C 16 µg/ml, A 0 µg/ml) was “+”, the “Wuchszustand der Testbakterien” value ([2]; C 16 µg/ml, B 0 µg/ml) was “+” and the “Wuchszustand der Testbakterien” value ([2]; C 32 µg/ml, A 0 µg/ml) was “-”. The “Wuchszustand der Testbakterien” value ([2]; C 32 µg/ml, B 0 µg/ml) was “-”.
